Laboratory results published in the NIST ThermoML archive (doi:10.1016/j.tca.2013.10.017).

Test: xn = mol fraction of the nth substance listed
Details: for surface tension liquid-gas: Ring tensiometer; for mass density: 101 kPa, Liquid, Vibrating tube method

C[N+](C)(C)CCO.[Cl-] [choline chloride] + O=C[C@H](O)[C@@H](O)[C@H](O)[C@H](O)CO
x1 = 0.67
Details | surface tension liquid-gas [mN/m]
298.15 K | 71.71
308.15 K | 71.11
318.15 K | 70.42
328.15 K | 69.95
338.15 K | 69.44
348.15 K | 68.91
358.15 K | 68.61

C[P+](c1ccccc1)(c1ccccc1)c1ccccc1.[Br-] [methyltriphenylphosphonium bromide] + OCC(O)CO
x1 = 0.25
Details | surface tension liquid-gas [mN/m]
298.15 K | 59.35
303.15 K | 58.81
308.15 K | 58.2
313.15 K | 57.68
318.15 K | 57.06
323.15 K | 56.45
328.15 K | 55.95

CCN(CC)CCO.Cl [2-(diethylamino)ethanol hydrochloride] + OCC(O)CO
x1 = 0.2
Details | mass density [kg/m3] | surface tension liquid-gas [mN/m]
298.15 K | 1205 | 58.94
303.15 K | 1202 | 58.33
308.15 K | 1199 | 57.63
313.15 K | 1196 | 56.99
318.15 K | 1193 | 56.39
323.15 K | 1188 | 55.73
328.15 K | 1187 | 55.16

C[P+](c1ccccc1)(c1ccccc1)c1ccccc1.[Br-] [methyltriphenylphosphonium bromide] + OCCO
x1 = 0.2
Details | mass density [kg/m3] | surface tension liquid-gas [mN/m]
298.15 K | 1289 | 47.51
303.15 K | 1286 | 47.06
308.15 K | 1282 | 46.57
313.15 K | 1278 | 46.12
318.15 K | 1275 | 45.59
323.15 K | 1271 | 45.12
328.15 K | 1267 | 44.64

O=C(CO)[C@@H](O)[C@H](O)[C@H](O)CO [D-fructose] + C[N+](C)(C)CCO.[Cl-]
x2 = 0.67
Details | surface tension liquid-gas [mN/m]
298.15 K | 74.01
308.15 K | 71.98
318.15 K | 70.02
328.15 K | 68.03
338.15 K | 65.98
348.15 K | 64.02
358.15 K | 62.05

C[N+](C)(C)CCO.[Cl-] [choline chloride] + OCC(O)CO
x1 = 0.33
Details | surface tension liquid-gas [mN/m]
298.15 K | 57.24
303.15 K | 56.85
308.15 K | 56.43
313.15 K | 55.93
318.15 K | 55.45
323.15 K | 55.03
328.15 K | 54.55

CCN(CC)CCO.Cl [2-(diethylamino)ethanol hydrochloride] + OCCO
x1 = 0.25
Details | mass density [kg/m3] | surface tension liquid-gas [mN/m]
298.15 K | 1100 | 51.29
303.15 K | 1097 | 50.74
308.15 K | 1093 | 50.17
313.15 K | 1090 | 49.63
318.15 K | 1087 | 49.14
323.15 K | 1084 | 48.67
328.15 K | 1081 | 48.12

C[N+](C)(C)CCO.[Cl-] [choline chloride] + OCCO
x1 = 0.33
Details | mass density [kg/m3] | surface tension liquid-gas [mN/m]
298.15 K | 1118 | 48.91
303.15 K | 1116 | 48.43
308.15 K | 1112 | 47.97
313.15 K | 1110 | 47.5
318.15 K | 1106 | 47.03
323.15 K | 1104 | 46.67
328.15 K | 1101 | 46.11
